Experimental data taken from patent US20230106102A1, “METHOD OF PRODUCING TRICHODESMA KHASIANUM CLARKE LEAF EXTRACTS AND APPLICATION OF THE SAME” (BAI-CHUNG-REN Foodstuff.Co.Ltd, priority 2021, published 2023).
Marks after values point to notes of the source that are not given here.

Key:
Type in all cases: in vivo
[1] = test system: Mice with Alcoholic Liver Injury; assay: Serum total cholesterol and triglyceride
Experimental: (§1) In the design of this study, male mice of C57BL/6J strain are eight weeks old and are pre-bred for two weeks before starting the experiment to allow the animals to adapt to the environment, and observe whether the animals are abnormal daily. Raising at a relative humidity of 60%, 23±1° C., 12-hour light cycle (8:00-20:00), unlimited feed and water for rodents. The establishment and experimental grouping of liver injury and fatigue model animals. The trichodesma khasianum […] extract powders explore the effect of alcohol liquid diet on fatty liver and liver damage in mice, male mice of the C57BL/6J strain of 8 weeks old, are given special diet for experimental animals (Laboratory Rodent Diet) during the 2 week adaptation period. After one week, the body weight reached 20g, and the group is tested and started to be fed with standard alcoholic liquid model feed (Lieber-DeCarli Regular Control (DYET#710027)) or ethanol feed (Ethanol Diet (DYET#710260)), food and water are not restricted. The test is carried out for six weeks. The test substance is given a fixed daily dose by tube feeding. The dosage conversion refers to the US Food and Drug Administration announcement (US FDA, 2005), based on a 60 kg adult, the recommended daily body weight per kg 12.3 times the intake is the dose for mice. The animal experiment is divided into five groups, and each group has 8 mice, so there are […] mice, including normal group (NOR group), alcohol group (ALD group), low dose of the trichodesma khasianum […] extract powder (TL group) and high dose group of the trichodesma khasianum […] extract powder (TH group), and rosmarinic acid group (RA group). […] The test items of a concentration of lipid in blood are total cholesterol (TC) and triglyceride (TG) in serum, wherein a concentration of the total cholesterol is analyzed by using commercially available biochemical reagents (BXC 0261, Fortress), and a concentration of the biochemical reagents (BXC 0271, Fortress) is analyzed by triglyceride. The test items of a concentration of liver lipid are total cholesterol and triglycerides, wherein a concentration of the total cholesterol of the liver lipid is analyzed by using commercially available biochemical reagents (BXC 0261, Fortress), and a concentration of the biochemical reagents (BXC 0271, Fortress) of the liver lipid is analyzed by triglyceride. A production of lipid peroxide malondialdehyde (MDA) is determined by way of thiobarbituric acid (thiobarbituric acid) color method, wherein the more the product of lipid peroxide malondialdehyde is, the higher the absorbance value produces. Therefore, when the sample is capable of reducing the absorbance value of the system, it means that an anti-oxidant effect is formed. […]

[2] = test system: mice with alcohol-induced liver injury; assay: Liver pathological section, H&E stain; conditions: FIG. 3, extract: TL and TH group, RA group
Experimental: (§2) In the design of this study, male mice of C57BL/6J strain are eight weeks old and are pre-bred for two weeks before starting the experiment to allow the animals to adapt to the environment, and observe whether the animals are abnormal daily. Raising at a relative humidity of 60%, 23±1° C., 12-hour light cycle (8:00-20:00), unlimited feed and water for rodents. The establishment and experimental grouping of liver injury and fatigue model animals. […] The test items of a concentration of lipid in blood are total cholesterol (TC) and triglyceride (TG) in serum, wherein a concentration of the total cholesterol is analyzed by using commercially available biochemical reagents (BXC 0261, Fortress), and a concentration of the biochemical reagents (BXC 0271, Fortress) is analyzed by triglyceride. The test items of a concentration of liver lipid are total cholesterol and triglycerides, wherein a concentration of the total cholesterol of the liver lipid is analyzed by using commercially available biochemical reagents (BXC 0261, Fortress), and a concentration of the biochemical reagents (BXC 0271, Fortress) of the liver lipid is analyzed by triglyceride. A production of lipid peroxide malondialdehyde (MDA) is determined by way of thiobarbituric acid (thiobarbituric acid) color method, wherein the more the product of lipid peroxide malondialdehyde is, the higher the absorbance value produces. […]

[3] = test system: mice with alcohol-induced liver injury; assay: Serum liver function index (AST, ALT) by biochemical automatic analyzer; conditions: FIG. 2, extract: TL and TH group, RA group, p<0.05 vs ALD
Experimental: as §2

[4] = test system: Mice with Alcoholic Liver Injury; assay: Liver lipid peroxidation (MDA, thiobarbituric acid color method); conditions: RA group
Experimental: as §2

[5] = Calorie intake, alcohol intake and body weight of mice fed alcohol liquid diet; conditions: for Body weight: RA group
Experimental: In the design of this study, male mice of C57BL/6J strain are eight weeks old and are pre-bred for two weeks before starting the experiment to allow the animals to adapt to the environment, and observe whether the animals are abnormal daily. Raising at a relative humidity of 60%, 23±1° C., 12-hour light cycle (8:00-20:00), unlimited feed and water for rodents. The establishment and experimental grouping of liver injury and fatigue model animals. The trichodesma khasianum […] extract powders explore the effect of alcohol liquid diet on fatty liver and liver damage in mice, male mice of the C57BL/6J strain of 8 weeks old, are given special diet for experimental animals (Laboratory Rodent Diet) during the 2 week adaptation period. After one week, the body weight reached 20g, and the group is tested and started to be fed with standard alcoholic liquid model feed (Lieber-DeCarli Regular Control (DYET#710027)) or ethanol feed (Ethanol Diet (DYET#710260)), food and water are not restricted. The test is carried out for six weeks. The test substance is given a fixed daily dose by tube feeding. The dosage conversion refers to the US Food and Drug Administration announcement (US FDA, 2005), based on a 60 kg adult, the recommended daily body weight per kg 12.3 times the intake is the dose for mice. The animal experiment is divided into five groups, and each group has 8 mice, so there are […] mice, including normal group (NOR group), alcohol group (ALD group), low dose of the trichodesma khasianum […] extract powder (TL group) and high dose group of the trichodesma khasianum […] extract powder (TH group), and rosmarinic acid group (RA group). The recommended daily intake of the trichodesma khasianum […] extract powders are 2 g per day. After the animal experiment dose is converted, the one-time dose is […], and the […]-time dose is 0.82 g/kg. After fasting for 12 hours, the experimental animals are sacrificed by carbon dioxide asphyxiation, and blood and liver tissues are collected. After the blood is centrifuged, the serum is collected for biochemical analysis. The surface of the tissue is cleaned with saline solution, dried with a paper towel and weighed, then the tissue of the second largest leaf of the liver is cut and placed in a tissue embedding basin soaked in 10% formalin for paraffin embedding and sectioning so as to have tissue staining analysis. Finally, all remained livers are cleaned internally with 0.9% saline and stored in a -80° C. refrigerator for later use. The aforementioned test items of liver function in serum are aspartate aminotransferase (AST), alanine aminotransferase (ALT) and alkaline phosphatase (ALP) which are tested by using biochemical automatic analyzer (Beckman-700, Fullerton, Calif., USA). The test items of a concentration of lipid in blood are total cholesterol (TC) and triglyceride (TG) in serum, wherein a concentration of the total cholesterol is analyzed by using commercially available biochemical reagents (BXC 0261, Fortress), and a concentration of the biochemical reagents (BXC 0271, Fortress) is analyzed by triglyceride. The test items of a concentration of liver lipid are total cholesterol and triglycerides, wherein a concentration of the total cholesterol of the liver lipid is analyzed by using commercially available biochemical reagents (BXC 0261, Fortress), and a concentration of the biochemical reagents (BXC 0271, Fortress) of the liver lipid is analyzed by triglyceride. A production of lipid peroxide malondialdehyde (MDA) is determined by way of thiobarbituric acid (thiobarbituric acid) color method, wherein the more the product of lipid peroxide malondialdehyde is, the higher the absorbance value produces. Therefore, when the sample is capable of reducing the absorbance value of the system, it means that an anti-oxidant effect is formed. […]

[6] = test system: mice with alcohol-induced liver injury; assay: Liver weight / body weight ratio (liver enlargement) in mice fed alcohol liquid diet; conditions: p<0.05
Experimental: as §2

[7] = test system: Mice with Alcoholic Liver Injury; assay: Liver total cholesterol and triglyceride; conditions: RA group
Experimental: as §1

[8] = RA group, alcohol liquid diet six weeks
[9] = extract high dose (TH group) or RA group
[10] = extract: TL and TH group, p<0.05

O=C(/C=C/c1ccc(O)c(O)c1)O[C@H](Cc1ccc(O)c(O)c1)C(=O)O [RA, rosmarinic acid]
Serum total cholesterol [1, 8]: 105.9 ± 9.97 ^ab mg/dL | Serum triglyceride [1, 8]: 107.7 ± 23.5 ^b mg/dL | serum total cholesterol raised by alcohol diet, compared with ALD group [1, 9]: significantly reduce | serum triglyceride raised by alcohol diet, compared with ALD group [1, 9]: significantly reduce | liver pathological examination (H&E section) [2]: only a few fat vacuoles and macrophage infiltration around the central vein | liver pathological examination (H&E section) ([2]; listed as rosmarinic acid): improves the effects of alcoholic fatty liver and cell damage | serum alanine transaminase (ALT/GPT) activity induced by alcohol diet [3]: significantly reduced | serum alanine transaminase (ALT/GPT) activity induced by alcohol diet ([3]; listed as rosmarinic acid): significantly reduce | production of liver lipid peroxides induced by alcohol diet ([4]; extract: TH group, no significant difference (p>0.05)): tendency to reduce | MDA ([4]; liver, alcohol liquid diet six weeks): 5.00 ± 0.90 ^ab mM/g | body weight compared with the alcohol group ([5]; 0 to 6 weeks, alcohol feed diet, p>0.05): no significant difference | Body weight ([5]; Day 0): 22.3 ± 0.7^a g | Body weight ([5]; Day 7): 21.7 ± 0.7^a g | Body weight ([5]; Day 14): 20.6 ± 0.5^a g | Body weight ([5]; Day 21): 23.3 ± 0.8^a g | Body weight ([5]; Day 28): 22.3 ± 0.7^a g | Body weight ([5]; Day 35): 21.6 ± 0.8^a g | Body weight ([5]; Day 42): 24.6 ± 1.0^a g | ratio of liver weight/body weight compared with ALD group ([6]; FIG. 1): significantly lower | alcohol-induced liver enlargement in mice ([6]; extract: TL and TH group, RA group): significantly reduces | Liver total cholesterol ([7]; alcohol liquid diet six weeks): 6.3 ± 0.56 ^b mg/g | Liver triglyceride ([7]; alcohol liquid diet six weeks): 8.4 ± 1.68 ^bc mg/g | liver cholesterol concentration in mice [7, 10]: significantly reduce | liver triglyceride concentration in mice [7, 10]: significantly reduce
